Results as given in US20100040623A1, “NEURITOGENIC AND NEURONAL SURVIVAL PROMOTING PEPTIDES DERIVED FROM THE FAMILY OF S-100 PROTEINS” (priority 2005, published 2010).

What was measured:
[1] = system: focal brain injury on the right fronto-parietal cortex; experiment: Traumatic brain injury (cryolesion): TUNEL, GFAP, PCNA; format: in vivo, Rats and mice; settings: 10 mg/kg s.c. at day -1, 1 and 2; post-lesion day 4
Procedure: A focal brain injury on the right fronto-parietal cortex was made by applying a piece of dry-ice (−78° C.) directly onto the skull for 30 seconds in mice and 60 seconds in rats, as previously described in details (Penkowa et al., 2003).
Histochemistry and immunohistochemistry were performed on sections cut from organs taken from fixated animals. Rats and mice were deeply anesthetized with Brietal and flushed by cardiac perfusion with saline containing heparine (0.9% NaCl, 3 ml/L 5000IU heparine) for 2 minutes followed by fixation with Zamboni's fixative (pH 7.4) for 4-8 minutes depending on the size of the animal. For immunohistochemical investigation, brain were dissected and postfixed in Zamboni's for 2-3 hours, dehydraded in graded alcohol followed by xylol and subsequently embedded in paraffin before being cut in 3 μm frontal sections throughout the entire area of the cryo lesion. For heat-induced epitope retrieval, the sections were boiled in citrate buffer (pH 6 or 9) in a microwave oven for 10 minutes followed by incubation in 10% goat serum (In Vitro, Fredensborg, DK) or donkey serum (code BP 005.1; The Binding Site, Birmingham, UK) in tris buffered saline (TBS)/Nonidet P-40 (0.01%) for 30 minutes at room temperature. Sections with mouse tissue used for incubation with monoclonal mouse-derived antibodies were also incubated with Blocking Solutions A+B from the HistoMouse-SP kit to quench endogenous mouse IgG (Zymed, Calif., USA).
Following treatment as described above, sections were incubated overnight at 5° C. with one of the following primary antibodies: polyclonal rabbit anti-cow glial fibrillary acidic protein (GFAP) 1:250 (a marker for astrocytes; DakoCytomation); monoclonal mouse anti-rat proliferating cellular nuclear antigen (PCNA) 1:10 (marking proliferating cell nuclear antigen/cell proliferation; DakoCytomation). The primary antibody was detected with biotynilated secondary antibodies, incubated with streptavidinbiotin-peroxidase complex for 30 min.
Terminal deoxynucleotidyl transferase (TdT)-mediated deoxyuridine triphosphate (dUTP)-biotin nick end labelling (TUNEL) was performed using the Fragment End Labeling (FragEL™) Detection Kit (Calbiochem, USA, code QIA33). The FragEL kit contains all the materials used below and each step was performed according to the manufacturer's recommendations. The tissue was processed and rehydrated as mentioned above, and sections were incubated with 20 µg/ml proteinase K for 20 min to strip off nuclear proteins. After immersion in equilibration buffer for 20 min, sections were incubated with TdT and biotin-labeled deoxynucleotids (dNTP-biotin) in a humified chamber at 37° C. for 1.5 hr. This was followed by wash buffer and the stop solution for 5 min at room temperature to stop the reaction. After washing in TBS and incubation in blocking buffer for 10 min, the sections were incubated with Peroxidase-Streptavidin for 30 min and afterwards, DAB was used as chromogen. The sections were counterstained with methyl-green. Negative control sections were treated similarly but incubated in the absence of TdT enzyme or dNTP-biotin or Peroxidase-Streptavidin. We also compared our sections with positive control slides provided in the FragEL Detection Kit. Furthermore, TUNEL was compared with other stainings for apoptosis (activated caspase-3, cytochrome-c and TNF[…]-R1). In addition, the morphologic criteria for apoptosis, i.e. cell shrinkage, formation of apoptotic bodies, membrane blebbing, no loss of cellular integrity, compaction of chromatin into uniformly dense masses, were evaluated.
In addition to morphological evaluation, quantification (cellular counts) of some of the variables, i.e. GFAP-positive cells, the area of GFAP-immunoreactivity, % of TUNEL-positive cells, % of proliferating cells, were analyzed. The analysis was carried out from the penumbra area of 3 μm brain sections for statistical analysis of the results. […]

[2] = system: primary hippocampal neurons; experiment: Neurite outgrowth from primary hippocampal neurons; format: cell-based, Wistar rat; settings: for stimulation of neurite outgrowth in vitro (conclusion): summary statement; for neurite outgrowth from hippocampal primary neurons (average neurite length): treated with various concentrations of peptide for 24 hours
Procedure: (§1) Dissociated hippocampal and cerebellar (CGN) neurons were isolated from Wistar rat embryos at embryonic day 19 or newborn rats as previously described by Rønn et al. (1999). Briefly, hippocampus was isolated from the brain in ice cold modified Krebs Ringer solution, cleared of blood vessels, roughly homogenised by chopping and then trypsinised. The dissociated cells were washed in the presence of DNAse 1 and soybean trypsin inhibitor. Postnatal hippocampal neurons were plated at a density of 10,000 cells/cm^2 on uncoated 8-well permanox Lab-Tek chamber slides in Neurobasal medium supplemented with 0.4% (w/v) bovine serum albumin (BSA; Sigma-Aldrich), 2% (v/v) B27 Neurobasal supplement, 1% (v/v) glutamax, 100 U/ml penicillin, 100 μg/ml streptomycin and 2% 1 M HEPES (all from Gibco, BRL). After 24 hours, the neurons were fixed with 4% (v/v) formaldehyde for 20 minutes and thereafter immunostained using primary rabbit antibodies against GAP-43 and Alexa Fluor secondary goat anti-rabbit Ig antibodies. Images of at least 200 neurons for each group in each individual experiment were obtained systematically by computer assisted fluorescence microscopy as previously described (Rønn et al., 2000). Briefly, a Nikon Diaphot inverted microscope with a Nikon Plan 20× objective (Nikon, Tokyo, Japan) coupled to a video camera (Grundig Electronics, Germany) was used for recordings. A software package Prima developed at the Protein Laboratory (Copenhagen, Denmark) was used to make a stereologically based determination of neurite length (Rønn et al., 2000).
(§2) Neuronal cell cultures were treated with various concentrations of a peptide for 24 hours, and the average neurite length was evaluated as described above. […] Thus peptide segments number 3 and number 6 from various members of the S100 protein family may represent potent pharmacological tools to induce neuronal differentiation and axon regeneration.

sciatic nerve crush = experiment: Functional recovery after sciatic nerve crush (Sciatic Function Index); format: in vivo, Wistar rats; settings: 10 mg/kg daily for 18 days
Procedure: Nerve crush of sciatic nerve was performed as follows. Before surgery, animals were anesthetized with subcutaneous injection of a Fenthanil/Droperidol/Medazolam (0.8 ml per 100 g). The right hind limb was shaved and swabbed with antiseptic solution. A longitudinal cutaneous incision was made in the back of the thigh. Dissection was carried out along a plane separating the hamstring and gluteal muscles to expose the sciatic nerve. Careful dissection was performed to isolate the sciatic nerve from the surrounding connective tissue over a length of 2 to 2.5 cm. The sciatic nerve was unilaterally crushed twice in the same place (0.5 cm upper trifurcation) for a 30 sec using a locking surgical needle holder. The place of the crush was labelled with 5-0 suture material attached to the epineurium. […] The bottom of the corridor was lined with paper, upon which the hind pawprints of the rat were recorded. […] Several prints of each foot were inspected, and the best corresponding pair of prints from experimental (E) and normal (N) legs were measured to the nearest millimeter, using a caliper. Three footprint parameters were measured: distance from the heel to the third toe, print length (PL), the distance between the first and fifth toe, toe spread (TS), and distance between the second and fourth toe, the intermediary toe spread (IT). […]

ERK = experiment: Phosphorylation of ERK in primary hippocampal neurons (PAGE method); format: cell-based; settings: neurons cultured 6 hours, stimulated 15 minutes
Procedure: (§3) Primary hippocampal neurons cultured for 6 hours were stimulated with H3 or H6 for 15 minutes. Thereafter the phosphorylation level of the three intracellular messengers involved in neurite outgrowth and survival, Akt, CREB, and ERK, was determined using the PAGE method.

CREB = experiment: Phosphorylation of CREB in primary hippocampal neurons (PAGE method); format: cell-based; settings: neurons cultured 6 hours, stimulated 15 minutes
Procedure: as §3

Akt = experiment: Phosphorylation of Akt in primary hippocampal neurons (PAGE method); format: cell-based; settings: neurons cultured 6 hours, stimulated 15 minutes
Procedure: as §3

[3] = system: kainic acid (KA)-induced toxicity; experiment: Kainic acid-induced toxicity (seizures, mortality); format: in vivo, Male C57BL/6J mice; settings: peptide 10 mg/kg daily from day -2; for amount of seizures: 20 mg/kg KA; for profile of seizures (severity): 30 mg/kg KA
Procedure: Male C57BL/6J mice were injected with 10 mg/kg H3 or H6 daily starting from day-2 prior to kainic acid treatment. At day 0 the animals were injected 30 mg/kg KA in order to induce severe seizures, or 20 mg/kg KA in order to induce mild seizures and prevent excessive mortality. Latency and seizure severity were scored for 2 h postinjection by using a numerical scale of 0 to 6: 0—immobility; 1—facial automatism; 2—head nodding; 3—forelimb clonus; 4—rearing; 5—generalized convulsions; 6—death. Control animals received s.c injection of vehicle.

[4] = system: cultured hippocampal neurons; experiment: Intracellular Ca2+ concentration, fura-2 loaded neurons; format: cell-based; settings: fura-2 ratiometric dye
cerebellar (CGN) neurons = experiment: Neurite outgrowth from primary cerebellar neurons; format: cell-based, Wistar rat; settings: treated with various concentrations of peptide for 24 hours
Procedure: as §1, §2

hippocampal neurons = settings: Novitskaya et al., 2000; cited from earlier work

Row | Substance | stimulation of neurite outgrowth in vitro (conclusion) [2] | phosphorylation level of ERK (ERK) | phosphorylation level of CREB (CREB) | area of GFAP-immunoreactivity (astrogliosis) [1] | cell death (apoptosis, DNA fragmentation/TUNEL) in the cortex induced by cryolesion [1] | number of GFAP-positive cells (astrogliosis) [1] | neurite outgrowth from hippocampal primary neurons (average neurite length) [2] | phosphorylation level of Akt (Akt) | amount of seizures [3] | profile of seizures (severity) [3] | level of intracellular Ca2+ ([Ca2+]i) [4] | neurite outgrowth from cerebellar primary neurons (average neurite length) (cerebellar (CGN) neurons) | other results
1 | DEAAFQKLMSNLD [A4H4, tetrameric peptide (hekatone) representing region 4 of S100A4] | – | – | – | – | – | – | – | – | – | – | – | – | proliferation of neural progenitor cells [1]: strongly induced proliferation
2 | HYHTHKE [A12H6, tetrameric peptide (hekatone) representing region 6 of S100A12] | potent stimulators of neurite outgrowth | – | – | – | – | – | – | – | – | – | – | – | –
3 | KELLTRELPSFLGKRT [A4H3, tetrameric peptide (hekatone) representing region 3 of S100A4] | potent stimulators of neurite outgrowth | significantly increased phosphorylation | significantly increased phosphorylation | increase | protected cells in the cortex from cell death | increase | strongly induced neurite outgrowth | significantly increased phosphorylation | decreased the amount of seizures | towards less severe seizures types | but not H3 significantly increased | strongly induced neurite outgrowth | recovery of the motor function of the injured limb (SFI) (sciatic nerve crush): strongly promoted the recovery
4 | KQLLTKELANTIKNIK [A12H3, tetrameric peptide (hekatone) representing region 3 of S100A12] | – | – | – | – | – | – | strongly induced neurite outgrowth | – | – | – | – | strongly induced neurite outgrowth | –
5 | NEFFEGFPDKQPRKK [A4H6, tetrameric peptide (hekatone) representing region 6 of S100A4] | potent stimulators of neurite outgrowth | significantly increased phosphorylation | significantly increased phosphorylation | increase | protected cells in the cortex from cell death | increase | strongly induced neurite outgrowth | significantly increased phosphorylation | decreased the amount of seizures | towards less severe seizures types | significantly increased | strongly induced neurite outgrowth | –
6 | S100A4: S100 family Ca2+-binding protein S100A4 (also termed Mts1) | – | – | – | – | – | – | – | – | – | – | – | – | neurite outgrowth in hippocampal neurons in vitro (hippocampal neurons): potent promoter of neurite outgrowth
